Data published in US20050245520A1, “2-Phenylpyridin-4-yl derivatives as alk5 inhibitors” (priority 2002, published 2005).
Where two headings read alike, the source gives them in different places.

Legend:
[1] = tested on: TGF-β signalling (PAI-1 promoter-luciferase in HepG2 cells); assay: Cellular transcriptional assay: PAI-1 promoter firefly luciferase reporter in cells exposed to TGF-β; format: cell-based; settings: HepG2 cells, 1 ng/mL rhTGFβ-1
Procedure: Assay 1 (Cellular Transcriptional Assay)
The assay was performed in HepG2 cells stably transfected with the PAI-1 promoter (known to be a strong TGF-β responsive promoter) linked to a luciferase (firefly) reporter gene. The compounds were selected on their ability to inhibit luciferase activity in cells exposed to TGF-β. In addition, cells were transfected with a second luciferase (Renilla) gene which was not driven by a TGF-β responsive promoter and was used as a toxicity control.
96 well microplates were seeded, using a multidrop apparatus, with the stably transfected cell line at a concentration of 35000 cells per well in 200 μl of serum-containing medium. These plates were placed in a cell incubator.
18 to 24 hours later (Day 2), cell-incubation procedure was launched. Cells were incubated with TGF-β and a candidate compound at concentrations in the range 50 nM to 10 μM (final concentration of DMSO 1%). The final concentration of TGF-β (rhTGFβ-1) used in the test was 1 ng/mL. Cells were incubated with a candidate compound 15-30 mins prior to the addition of TGF-β. The final volume of the test reaction was 150 μl. Each well contained only one candidate compound and its effect on the PAI-1 promoter was monitored.
Columns 11 and 12 were employed as controls. Column 11 contained 8 wells in which the cells were incubated in the presence of TGF-β, without a candidate compound. Column 11 was used to determine the ‘reference TGF-β induced firefly luciferase value’ against which values measured in the test wells (to quantify inhibitory activity) were compared. […]
12 to 18 hours later (day 3), the luciferase quantification procedure was launched. […] Following agitation (15 to 30 mins), luciferase activities of the plates were read in a dual-injector luminometer (BMG lumistar). For this purpose, 50 μl of luciferase assay reagent and 50 μl of ‘Stop & Glo’ buffer were injected sequentially to quantify the activities of both luciferases. […] For each of the compounds tested, a concentration response curve was constructed from which an IC50 value was determined graphically.

[2] = target: T1, recombinant GST-ALK5 (residues 198-503) (Homo sapiens, UniProt P36897); assay: Alk5 fluorescence polarization assay (displacement of rhodamine green-labelled ligand); format: binding
T1 construct: assays using recombinant GST-ALK5 (residues 198-503)
T1 sequence (P36897 198-503): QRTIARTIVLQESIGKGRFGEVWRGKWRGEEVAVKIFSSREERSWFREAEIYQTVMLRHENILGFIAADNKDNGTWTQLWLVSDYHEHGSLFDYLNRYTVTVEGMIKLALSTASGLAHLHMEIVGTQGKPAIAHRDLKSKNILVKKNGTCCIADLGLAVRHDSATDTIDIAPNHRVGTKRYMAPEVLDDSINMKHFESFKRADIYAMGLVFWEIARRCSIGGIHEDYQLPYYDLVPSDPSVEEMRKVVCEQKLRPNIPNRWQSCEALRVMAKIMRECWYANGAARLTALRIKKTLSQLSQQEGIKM
Procedure: Kinase inhibitor compounds conjugated to fluorophores, can be used as fluorescent ligands to monitor ATP competitive binding of other compounds to a given kinase. The increase in depolarization of plane polarized light, caused by release of the bound ligand into solution, is measured as a polarization/anisotropy value.
The compounds were serially diluted (3-fold in 100% DMSO) across the plate to column 11 to yield 11 concentrations for each test compound. Column 12 contained only DMSO.
ALK5 was added to assay buffer containing the above components and 1 nM of the rhodamine green-labelled ligand so that the final ALK5 concentration was 10 nM based on active site titration of the enzyme. The enzyme/ligand reagent (39 μl) was added to each well of the previously prepared assay plates. […] The plates were read immediately on a LJL Acquest fluorescence reader (Molecular Devices, serial number AQ1048) with excitation, emission, and dichroic filters of 485 nm, 530 nm, and 505 nm, respectively. The fluorescence polarization for each well was calculated by the Acquest reader and then imported into curve fitting software for construction of concentration response curves. The normalized response was determined relative to the high controls (1 μl DMSO in column 12, rows A-D) and the low controls (1 μl of control compound in column 12, rows E-H). An IC50 value was then calculated for each compound

For `Cc1cccc(-c2[nH]c(C(C)(C)C)nc2-c2ccnc(-c3ccc(N4CCOCC4)cc3)c2)n1` [Example 86, 4-{4-[4-(2-tert-Butyl-5-{6-methyl}-pyridin-2-yl-1 H-imidazol-4-yl)-pyridin-2-yl]-phenyl}-morpholine], which IC50 [1] is on record?
The IC50 was 183 nM.

And the IC50 ([2]; fluorescence polarization, 10 nM ALK5, 1 nM labelled ligand, read-out: ALK5 receptor modulator activity (IC50))?
Its IC50 is 34 nM.

Which results are given for `Cc1cccc(-c2nc(C(C)C)[nH]c2-c2ccnc(-c3ccc(C(=O)NC4CCOCC4)cc3)c2)n1` [Example 96, N-(tetrahydropyran-4-yl)-4-(4-{2-isopropyl-5-[6-methyl-pyridin-2-yl]-1H-imidazol-4-yl}-pyridin-2-yl)-benzamide]?
IC50 ([1]; Homo sapiens): < 14 nM; IC50 [2]: 25 nM
